We go through 6 compounds from US20230265116A1, “DEGRADATION OF (EGFR) BY CONJUGATION OF EGFR INHIBITORS WITH E3 LIGASE LIGAND AND METHODS OF USE” (BEIGENE, LTD., priority 2020, published 2023).

Structures are written as SMILES.

The target of assay [1] is T1, EGFR L858R/T790M (H1975-clone #36, homozygous) (Homo sapiens, UniProt P00533, L858R/T790M).
T1 construct: designed to specifically target WT EGFR but preserve the L858R/T790M copy; host or cells: H1975-clone #36
Briefly: EGFR degradation HTRF assay, H1975-clone #36 cells. The format is cell-based. The note with it: H1975 #36, 16h treatment; for Dmax: NCI-H1975, maximum percentage of degradation. The procedure, abridged:
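H1975 clone #36, made homozygous for L858R/T790M EGFR by knockout of the WT allele, treated 16 h at 37 °C with compound in 0.2% DMSO medium. Eight doses from 10 uM, 5-fold dilutions. EGFR measured by HTRF in lysates. DC50 and Dmax fitted against DMSO controls.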
For orientation: Time-resolved FRET reads energy transfer from a long-lived donor to a nearby acceptor.

Assay [2] deals with T2, EGFR (HCC827 cells) (Homo sapiens, UniProt P00533, DEL746-750).
T2 construct: endogenous in cells; host or cells: HCC827
Briefly: EGFR degradation HTRF assay, HCC827 cells. The format is cell-based. As to conditions: HCC827, 16h treatment; for Dmax: maximum percentage of degradation. In a few lines: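 EGFR remaining after a 16 h, 37 °C exposure (8 doses, 5-fold steps from 10 uM final, 0.2% DMSO) was quantified by HTRF antibodies in cell lysate. Percent inhibition relative to DMSO control was fitted by four-parameter logistic to give DC50; Dmax denotes maximal degradation.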

T2 sequence (P00533 with tags, fused parts or gaps DEL746-750): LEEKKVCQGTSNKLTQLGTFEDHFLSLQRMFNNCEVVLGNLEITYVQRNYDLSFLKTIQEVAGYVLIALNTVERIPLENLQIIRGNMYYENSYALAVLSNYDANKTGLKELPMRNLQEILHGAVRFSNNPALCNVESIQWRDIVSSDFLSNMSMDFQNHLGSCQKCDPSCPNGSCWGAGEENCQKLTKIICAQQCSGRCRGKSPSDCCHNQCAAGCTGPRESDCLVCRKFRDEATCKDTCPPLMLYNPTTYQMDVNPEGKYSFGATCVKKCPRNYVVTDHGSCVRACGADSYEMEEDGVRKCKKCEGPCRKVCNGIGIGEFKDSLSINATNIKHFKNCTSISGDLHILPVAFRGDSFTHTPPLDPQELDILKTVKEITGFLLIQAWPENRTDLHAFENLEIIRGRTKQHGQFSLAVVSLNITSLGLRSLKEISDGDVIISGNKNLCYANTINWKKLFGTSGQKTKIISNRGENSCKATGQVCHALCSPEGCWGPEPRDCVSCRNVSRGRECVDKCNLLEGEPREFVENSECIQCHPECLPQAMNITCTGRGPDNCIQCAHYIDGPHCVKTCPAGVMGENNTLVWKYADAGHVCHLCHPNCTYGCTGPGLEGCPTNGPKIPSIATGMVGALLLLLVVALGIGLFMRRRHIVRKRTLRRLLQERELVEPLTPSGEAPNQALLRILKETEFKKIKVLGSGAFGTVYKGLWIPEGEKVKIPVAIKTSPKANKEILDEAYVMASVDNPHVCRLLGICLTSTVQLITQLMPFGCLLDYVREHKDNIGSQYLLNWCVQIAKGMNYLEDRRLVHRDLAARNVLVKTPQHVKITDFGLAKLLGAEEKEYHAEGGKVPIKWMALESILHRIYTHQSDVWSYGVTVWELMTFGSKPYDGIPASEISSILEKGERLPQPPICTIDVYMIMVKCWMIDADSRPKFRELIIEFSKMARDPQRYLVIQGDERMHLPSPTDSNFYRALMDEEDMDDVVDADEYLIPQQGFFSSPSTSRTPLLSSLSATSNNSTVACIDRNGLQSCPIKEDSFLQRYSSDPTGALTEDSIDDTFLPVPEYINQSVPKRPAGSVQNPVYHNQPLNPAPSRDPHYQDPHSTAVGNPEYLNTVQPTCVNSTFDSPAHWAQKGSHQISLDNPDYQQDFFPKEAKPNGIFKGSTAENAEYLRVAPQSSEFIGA
T1 sequence (P00533 25-1210 T790M/L858R): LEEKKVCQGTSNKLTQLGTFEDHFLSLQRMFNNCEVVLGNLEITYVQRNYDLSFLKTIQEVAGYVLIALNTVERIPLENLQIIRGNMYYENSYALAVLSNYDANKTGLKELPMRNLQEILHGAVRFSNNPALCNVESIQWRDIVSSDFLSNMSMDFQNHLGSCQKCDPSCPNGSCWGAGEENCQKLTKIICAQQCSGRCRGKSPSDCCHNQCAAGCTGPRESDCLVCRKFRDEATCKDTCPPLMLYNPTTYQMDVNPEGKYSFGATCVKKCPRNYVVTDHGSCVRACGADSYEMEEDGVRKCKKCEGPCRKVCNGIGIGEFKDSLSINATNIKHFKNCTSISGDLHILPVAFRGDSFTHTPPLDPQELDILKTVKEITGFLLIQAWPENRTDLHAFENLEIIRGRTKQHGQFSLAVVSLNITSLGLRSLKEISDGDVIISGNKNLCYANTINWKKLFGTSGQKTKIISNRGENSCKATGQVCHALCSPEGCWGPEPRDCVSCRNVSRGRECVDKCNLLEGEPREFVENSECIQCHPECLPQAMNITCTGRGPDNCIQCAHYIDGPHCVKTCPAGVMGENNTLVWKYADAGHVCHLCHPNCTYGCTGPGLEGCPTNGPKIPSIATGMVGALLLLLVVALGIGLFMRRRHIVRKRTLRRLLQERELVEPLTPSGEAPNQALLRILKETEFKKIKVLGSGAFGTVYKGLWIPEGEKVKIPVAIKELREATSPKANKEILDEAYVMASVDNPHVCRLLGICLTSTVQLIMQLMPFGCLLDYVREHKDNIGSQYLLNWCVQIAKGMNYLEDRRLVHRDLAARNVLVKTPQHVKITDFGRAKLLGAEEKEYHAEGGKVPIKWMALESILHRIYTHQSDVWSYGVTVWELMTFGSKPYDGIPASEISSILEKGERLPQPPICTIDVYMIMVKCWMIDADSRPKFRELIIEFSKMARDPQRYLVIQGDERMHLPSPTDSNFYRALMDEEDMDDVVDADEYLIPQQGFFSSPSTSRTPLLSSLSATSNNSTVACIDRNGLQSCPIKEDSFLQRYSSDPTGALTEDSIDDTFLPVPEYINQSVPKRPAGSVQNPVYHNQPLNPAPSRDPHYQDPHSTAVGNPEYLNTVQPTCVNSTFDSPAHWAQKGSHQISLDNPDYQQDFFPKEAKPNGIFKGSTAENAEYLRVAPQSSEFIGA

The DC50 is the midpoint of the concentration-degradation curve. Low values mean a more potent degrader, high ones a less potent degrader. For orientation: Dmax means the greatest extent of degradation seen. A high value points to deep degradation. As to `COc1cc(N2CCN(CC3CCN(c4ccc(C5CCC(=O)NC5=O)cc4)CC3)CC2)ccc1Nc1ncc(Cl)c(Nc2ccccc2P(C)(C)=O)n1` (stereo not drawn) [Example 105, 3-(4-(4-((4-(4-((5-chloro-4-((2-(dimethylphosphoryl)phenyl)amino)pyrimidin-2-yl)amino)-3-methoxyphenyl)piperazin-1-yl)methyl)piperidin-1-yl)phenyl)piperidine-2,6-dione], in assay [1], the DC50 was determined as 12.2 nM and the Dmax was found to be 83.7%. For the same compound, in assay [2], it took 16 nM to reach half-maximal degradation (DC50) and the maximal degradation (Dmax) is 67.2%.
For `COc1cc(N2CCC(N3CCN(CCC4CCN(c5ccc(C6CCC(=O)NC6=O)cc5)CC4)CC3)CC2)ccc1Nc1ncc(Cl)c(Nc2ccccc2P(C)(C)=O)n1` (stereo not drawn) [Example 106, 3-(4-(4-(2-(4-(1-(4-((5-chloro-4-((2-(dimethylphosphoryl)phenyl)amino)pyrimidin-2-yl)amino)-3-methoxyphenyl)piperidin-4-yl)piperazin-1-yl)ethyl)piperidin-1-yl)phenyl)piperidine-2,6-dione] the same measures were 8.32 nM, 63%, 7.06 nM and 63.2%.
For `COc1cc(N2CCN(CC3CCN(c4ccc(N5CCC(=O)NC5=O)cc4)CC3)CC2)ccc1Nc1ncc(Cl)c(Nc2ccccc2P(C)(C)=O)n1` [Example 115, 1-(4-(4-((4-(4-((5-chloro-4-((2-(dimethylphosphoryl)phenyl)amino)pyrimidin-2-yl)amino)-3-methoxyphenyl)piperazin-1-yl)methyl)piperidin-1-yl)phenyl)dihydropyrimidine-2,4(1H,3H)-dione] the same measures were 641 nM, 74.7%, 103 nM and 83.4%.
The matching figures for `COc1cc(N2CCN(C3CN(C(=O)c4cnc(C(=O)Nc5ccc(C6CCC(=O)NC6=O)cc5)cn4)C3)CC2)ccc1Nc1ncc(Cl)c(Nc2ccccc2P(C)(C)=O)n1` (stereo not drawn) [Example 116, 5-(3-(4-(4-((5-chloro-4-((2-(dimethylphosphoryl)phenyl)amino)pyrimidin-2-yl)amino)-3-methoxyphenyl)piperazin-1-yl)azetidine-1-carbonyl)-N-(4-(2,6-dioxopiperidin-3-yl)phenyl)pyrazine-2-carboxamide]: 6.63 nM, 62%, 17.9 nM and 75.4%.
Turning to `COc1cc(N2CCC(N3CCN(C(=O)C[C@H](NC(=O)[C@@H]4C[C@@H](O)CN4C(=O)[C@@H](c4cc(C)no4)C(C)C)c4ccc(-c5scnc5C)cc4)CC3)CC2)ccc1Nc1ncc(Cl)c(Nc2ccccc2P(C)(C)=O)n1` [Example 117, (2S,4R)—N—((S)-3-(4-(1-(4-((5-chloro-4-((2-(dimethylphosphoryl)phenyl)amino)pyrimidin-2-yl)amino)-3-methoxyphenyl)piperidin-4-yl)piperazin-1-yl)-1-(4-(4-methylthiazol-5-yl)phenyl)-3-oxopropyl)-4-hydroxy-1-((R)-3-methyl-2-(3-methylisoxazol-5-yl)butanoyl)pyrrolidine-2-carboxamide], the figures for the DC50 in assay [1] and in assay [2] were 67.4 nM and 17 nM, respectively. In addition, the figures for the maximal degradation (Dmax) in assay [1] and in assay [2] were 86.7% and 76.2%, respectively.
The matching figures for `COc1cc(N2CCC(N3CCN(CCCC4CN(c5ccc6c(c5)C(=O)N(C5CCC(=O)NC5=O)C6=O)C4)CC3)CC2)ccc1Nc1ncc(Cl)c(Nc2ccccc2P(C)(C)=O)n1` (stereo not drawn) [Example 118, 5-(3-(3-(4-(1-(4-((5-chloro-4-((2-(dimethylphosphoryl)phenyl)amino)pyrimidin-2-yl)amino)-3-methoxyphenyl)piperidin-4-yl)piperazin-1-yl)propyl)azetidin-1-yl)-2-(2,6-dioxopiperidin-3-yl)isoindoline-1,3-dione]: 24.7 nM, 22.7 nM, 82.4% and 76%.
